Experimental findings from ChEMBL document CHEMBL1124835, “Structure-activity relationships of antineoplastic agents in multidrug resistance” (J Med Chem, 1990) are described below.

Data set [1] relates to L1210.
Description: (§1) Cross resistance profile versus L1210/R71 cells.
For data set [2] the following is noted: octanol/water, pH 7.4.
The next data set is described as follows: physchem. The settings on record: octanol/water, pH 7.4.
Data set [3] relates to L1210. The data set can be described thus: Cross resistance to the compound expressed as as log of ratio of molar concentration of drug inducing 50% inhibition of growth in murine leukemia L1210/R71 and L1210/0 cells. In kind it is functional, Mus musculus.
Data set [4] relates to CHO. The data set can be described thus: Cross resistance of chinese hamster cells resistant to actinomycin D as log of ratio of molar concentration of compound inducing 50% inhibition of growth in resistant and sensitive cells. The data set is classed as functional, Cricetulus griseus.
Data set [5] has as its system CCRF-CEM. The data set can be described thus: Effect on cross resistance of CCRF-CEM cells resistant to vincristine expressed as log of ratio of molar concentration of compound inducing 50% growth inhibition in resistant to sensitive cells. The data set is classed as functional, Homo sapiens.
Data set [6] relates to CCRF-CEM. The data set can be described thus: Effect on cross resistance of CCRF-CEM cells resistant to vincristine expressed as as log of ratio of molar concentration of compound inducing 50% growth inhibition in resistant to sensitive cells. In kind it is functional, Homo sapiens.
Data set [7] deals with CHO. The note with it: Cricetulus griseus.
Description: Effect on cross resistance of CHO cells resistant to colchicine (CHRC5)
The test system of data set [8] is L1210. The settings on record: Mus musculus.
Description: as §1

Description for CHRC5 cell line: Collateral sensitivity of CHRC5 cells to local anesthetics/steroids as log of ratio of molar concentration of drug inducing 50% growth inhibition in CHO AUXB1 cells to that of CHRC5 cells

For `CC1(C)N=C(N)N=C(N)N1c1cccc(C(N)=O)c1`, the “Log CR” value in the data set with L1210 [1] is reported as 1.85. This compound also came in with a logD in data set [2] of -4.49.

Compound `CCc1nc(N)nc(N)c1-c1ccc(Cl)c(Cl)c1` [ETOPRINE] gave a logD in “physchem” of 2.93. Further, the “Log CR” value in the data set with L1210 [3] came out at 1.69.

Regarding `CN(Cc1cnc2nc(N)nc(N)c2n1)c1ccc(C(=O)N[C@@H](CCC(=O)O)C(=O)O)cc1` [METHOTREXATE], the entries for the “Log CR” value with CHO [4] and in the data set with L1210 [3] were 0.04 and 2.55, respectively. This compound also had a logD in “physchem” of -2.52.

Regarding `COc1cc([C@@H]2c3cc4c(cc3[C@H](O)[C@H]3COC(=O)[C@H]23)OCO4)cc(OC)c1OC` [PODOFILOX], in “physchem”, the pH-dependent lipophilicity (logD) was 2.01. Further, the “Log CR” value in the data set on CCRF-CEM [5] was determined as 0.07.

Turning to `COc1cc([C@@H]2c3cc4c(cc3[C@@H](O[C@@H]3O[C@@H]5CO[C@@H](c6cccs6)O[C@H]5[C@H](O)[C@H]3O)[C@H]3COC(=O)[C@H]23)OCO4)cc(OC)c1O` [TENIPOSIDE], the log distribution coefficient (logD) in the data set “physchem” stood at 1.22. Moreover, the “Log CR” value with CCRF-CEM [6] was 1.56.

The compound `CCCCNc1ccc(C(=O)OCCN(C)C)cc1` [TETRACAINE] displayed a logD in [2] of 1. This compound also registered a Log sensitivity in the data set with CHRC5 cell line of 0.7.

Consider BLEOMYCIN, for which the Log CR with CHO [7] was found to be 0; in the data set on L1210 [8], 0.24.
